Where a SMILES comes first, the peptide text is derived from it. Bridges are numbered along the chain shown (N, C = ends).
Tested on: Rabbit Renal Artery
Assay: Vasorelaxant relative potency, rabbit renal artery
Type: cell-based

Row | Structure (SMILES) | Vasorelaxant Relative Potency Rabbit Renal Artery (Table 1, (3-28) analogs, relative to sequence I = 1) | Vasorelaxant Relative Potency Rabbit Renal Artery (Table 2, (7-27)-NH2 analogs, relative to I (7-27)-NH2 = 1)
1 | CC[C@H](C)[C@@H]1NC(=O)[C@H](CCCNC(=N)N)NC(=O)[C@H](CC(=O)O)NC(=O)[C@H]([C@@H](C)CC)NC(=O)[C@H](CCCNC(=N)N)NC(=O)CNC(=O)CNC(=O)[C@H](Cc2ccccc2)NC(=O)[C@@H](N)CSSC[C@@H](C(=O)N[C@@H](CC(N)=O)C(=O)N[C@@H](CO)C(=O)N2CCC[C@H]2C(=O)N[C@@H](CCCNC(=N)N)C(N)=O)NC(=O)CNC(=O)[C@H](CC(C)C)NC(=O)CNC(=O)[C@H](CO)NC(=O)[C@H](CCC(N)=O)NC(=O)[C@H](C)NC(=O)CNC1=O [Structure 23, PROLINE-26 ANF (7-27) amide] (H-CFGGRIDRIGAQSGLGCNSPR-NH2; disulfide 1-17) | 3.3 | –
2 | CC[C@H](C)[C@@H]1NC(=O)[C@H](CCCNC(=N)N)NC(=O)[C@H](CC(=O)O)NC(=O)[C@H]([C@@H](C)CC)NC(=O)[C@H](CCCNC(=N)N)NC(=O)CNC(=O)CNC(=O)[C@H](Cc2ccccc2)NC(=O)[C@@H](N)CSSC[C@@H](C(=O)N[C@@H](CC(N)=O)C(=O)N[C@@H](CO)C(=O)N2CCC[C@H]2C(=O)N[C@@H](CCCNC(=N)N)C(N)=O)NC(=O)CNC(=O)[C@H](CC(C)C)NC(=O)CNC(=O)[C@H](CO)NC(=O)[C@H](CCC(N)=O)NC(=O)[C@H](C)NC(=O)CNC1=O [Structure 23] (H-CFGGRIDRIGAQSGLGCNSPR-NH2; disulfide 1-17) | – | 3.86
